Results taken from the NIST ThermoML archive (doi:10.1016/j.jct.2007.07.005).
± gives the expanded uncertainty stated by the source.

Experiment: xn = mol fraction of the nth substance listed
Details: Fluid (supercritical or subcritical phases), vibrating tube

CCCCCO [pentan-1-ol] + O=C=O
Details | mass density [kg/m3]
332.96 K, 13004 kPa, x2 = 0.0816 | 798.35 ± 0.44
332.96 K, 13052 kPa, x2 = 0.7274 | 804 ± 0.5
332.96 K, 14008 kPa, x2 = 0.7274 | 808.02 ± 0.46
332.96 K, 14029 kPa, x2 = 0.0816 | 799.18 ± 0.44
332.96 K, 14991 kPa, x2 = 0.0816 | 799.97 ± 0.44
332.96 K, 15033 kPa, x2 = 0.7274 | 812.1 ± 0.46
332.96 K, 16004 kPa, x2 = 0.0816 | 800.75 ± 0.44
332.96 K, 16033 kPa, x2 = 0.7274 | 815.82 ± 0.46
332.96 K, 17014 kPa, x2 = 0.0816 | 801.55 ± 0.45
332.96 K, 17034 kPa, x2 = 0.7274 | 819.37 ± 0.46
332.96 K, 17988 kPa, x2 = 0.7274 | 822.59 ± 0.46
332.96 K, 18018 kPa, x2 = 0.0816 | 802.33 ± 0.45
332.96 K, 19024 kPa, x2 = 0.0816 | 803.1 ± 0.45
332.96 K, 19059 kPa, x2 = 0.7274 | 826.03 ± 0.46
332.96 K, 19981 kPa, x2 = 0.0816 | 803.83 ± 0.45
332.96 K, 20008 kPa, x2 = 0.7274 | 828.96 ± 0.46
332.96 K, 20999 kPa, x2 = 0.7274 | 831.94 ± 0.46
332.96 K, 21024 kPa, x2 = 0.0816 | 804.62 ± 0.45
332.96 K, 22023 kPa, x2 = 0.7274 | 834.87 ± 0.46
332.96 K, 22057 kPa, x2 = 0.0816 | 805.42 ± 0.45
332.96 K, 23004 kPa, x2 = 0.7274 | 837.6 ± 0.46
332.96 K, 23012 kPa, x2 = 0.0816 | 806.12 ± 0.45
332.96 K, 23961 kPa, x2 = 0.7274 | 840.19 ± 0.46
332.96 K, 24007 kPa, x2 = 0.0816 | 806.87 ± 0.45
332.96 K, 25043 kPa, x2 = 0.0816 | 807.63 ± 0.45
333.01 K, 7029 kPa, x2 = 0.1347 | 794.28 ± 0.44
333.01 K, 8022 kPa, x2 = 0.1347 | 795.19 ± 0.44
333.01 K, 9011 kPa, x2 = 0.1347 | 796.07 ± 0.44
333.01 K, 10005 kPa, x2 = 0.1347 | 796.96 ± 0.44
333.01 K, 11019 kPa, x2 = 0.1347 | 797.85 ± 0.44
333.01 K, 11162 kPa, x2 = 0.6054 | 813.27 ± 0.45
333.01 K, 12017 kPa, x2 = 0.1347 | 798.71 ± 0.44
333.01 K, 12048 kPa, x2 = 0.6054 | 815.29 ± 0.46
333.01 K, 13025 kPa, x2 = 0.1347 | 799.58 ± 0.44
333.01 K, 13037 kPa, x2 = 0.6054 | 817.51 ± 0.45
333.01 K, 14019 kPa, x2 = 0.1347 | 800.43 ± 0.44
333.01 K, 14041 kPa, x2 = 0.6054 | 819.75 ± 0.45
333.01 K, 15000 kPa, x2 = 0.1347 | 801.26 ± 0.44
333.01 K, 15073 kPa, x2 = 0.6054 | 822.01 ± 0.45
333.01 K, 16013 kPa, x2 = 0.1347 | 802.1 ± 0.44
333.01 K, 16020 kPa, x2 = 0.6054 | 824.01 ± 0.45
333.01 K, 17014 kPa, x2 = 0.1347 | 802.91 ± 0.45
333.01 K, 17032 kPa, x2 = 0.6054 | 826.08 ± 0.45
333.01 K, 18011 kPa, x2 = 0.1347 | 803.75 ± 0.45
333.01 K, 18043 kPa, x2 = 0.6054 | 828.09 ± 0.45
333.01 K, 19014 kPa, x2 = 0.1347 | 804.55 ± 0.45
333.01 K, 19023 kPa, x2 = 0.6054 | 830 ± 0.45
333.01 K, 20028 kPa, x2 = 0.6054 | 831.92 ± 0.45
333.01 K, 20029 kPa, x2 = 0.1347 | 805.36 ± 0.45
333.01 K, 21007 kPa, x2 = 0.1347 | 806.13 ± 0.45
333.01 K, 21051 kPa, x2 = 0.6054 | 833.82 ± 0.45
333.01 K, 22021 kPa, x2 = 0.1347 | 806.92 ± 0.45
333.01 K, 22023 kPa, x2 = 0.6054 | 835.61 ± 0.45
333.01 K, 23026 kPa, x2 = 0.1347 | 807.74 ± 0.45
333.01 K, 23040 kPa, x2 = 0.6054 | 837.43 ± 0.46
333.01 K, 24005 kPa, x2 = 0.1347 | 808.5 ± 0.45
333.01 K, 24066 kPa, x2 = 0.6054 | 839.22 ± 0.46
333.01 K, 25039 kPa, x2 = 0.6054 | 840.93 ± 0.47
333.01 K, 25049 kPa, x2 = 0.1347 | 809.32 ± 0.45
342.76 K, 505 kPa, x2 = 0 | 776.31 ± 0.43
342.76 K, 997 kPa, x2 = 0 | 776.77 ± 0.43
342.76 K, 1995 kPa, x2 = 0 | 777.69 ± 0.43
